Key:
[1] = system: HepG2; experiment: Mitochondrial toxicity in human HepG2 cells assessed as lactate dehydrogenase release up to 100 uM; type: cell-based
[2] = system: Hepatitis B virus; experiment: Antiviral activity against entecavir-resistant Hepatitis B virus harboring L180M/M204V/S202G triple mutant infected in human HuH7 cells; type: functional, organism-based; details: Huh-7
[3] = Cytotoxicity against human HuH7 cells; type: cell-based, Huh-7
[4] = system: Hepatitis B virus; experiment: Antiviral activity against wild type Hepatitis B virus infected in human HuH7 cells; type: functional, organism-based; details: Huh-7
[5] = system: Hepatitis B virus; experiment: Selectivity ratio of EC50 for entecavir-resistant Hepatitis B virus harboring L180M/M204V/S202G triple mutant to EC50 for wild type Hepatitis B virus; type: functional
[6] = system: HepG2; experiment: Mitochondrial toxicity in human HepG2 cells assessed as lactate dehydrogenase release up to 200 uM; type: cell-based

Row | Structure (SMILES) | Activity [1] | EC50 [2] | CC50 [3] | EC50 [4] | EC90 [4] | Ratio EC50 [5] | Activity [6]
1 | C=C1[C@@H](n2cnc3c(N)ncnc32)[C@H](F)[C@H](O)[C@H]1CO | Non-toxic | 670 nM | > 300000 nM | 548 nM | 6000 nM |  | 
2 | C=C1[C@@H](n2cnc3c(N)ncnc32)[C@H](F)[C@H](O)[C@H]1COP(=O)(N[C@@H](C)C(=O)OC)Oc1ccccc1 (stereo not given in full) |  | 54 nM | > 300000 nM | 62 nM | 460 nM |  | 
3 | C=C1[C@H](CO)[C@@H](O)C[C@@H]1n1cnc2c(=O)[nH]c(N)nc21.O [ENTECAVIR] |  | 1200 nM | 28000 nM | 8 nM | 33 nM | 150 | 
4 | Nc1ccn([C@@H]2CS[C@H](CO)O2)c(=O)n1 [LAMIVUDINE] |  | > 500000 nM | > 300000 nM | 56 nM | 142 nM |  | Non-toxic
5 | Cc1cn([C@H]2C[C@H](N=[N+]=[N-])[C@@H](CO)O2)c(=O)[nH]c1=O [ZIDOVUDINE] |  |  |  |  |  |  | Toxic

Reference: ChEMBL document CHEMBL2321711, “2'-Fluoro-6'-methylene-carbocyclic adenosine phosphoramidate (FMCAP) prodrug: in vitro anti-HBV activity against the lamivudine-entecavir resistant triple mutant and its mechanism of action” (Bioorg Med Chem Lett, 2013)
